Measurements taken from article PMC5218480 (PLoS ONE, 2017).

Test system: MV-4-11 cells
Assay: Gene expression microarray analysis (Affymetrix PrimeView) and GSEA
Assay type: cell-based, human
Design: RFU PODN (11730768_x_at) / Fold change /veh PODN (11730768_x_at) / RFU LINC00158 (11744669_a_at) / Fold change /veh LINC00158 (11744669_a_at) / RFU DUSP10 (11751237_a_at) / Fold change /veh DUSP10 (11751237_a_at) / RFU ID3 (11757404_x_at) / Fold change /veh ID3 (11757404_x_at) / RFU PLEKHG5 (11737974_s_at) / Fold change /veh PLEKHG5 (11737974_s_at) / RFU LRRC4B (11730491_at) / Fold change /veh LRRC4B (11730491_at) / RFU GIMAP4 (11747438_a_at) / Fold change /veh GIMAP4 (11747438_a_at) / RFU KRT8 (11758183_x_at) / Fold change /veh KRT8 (11758183_x_at) / RFU CNN1 (11734310_a_at) / Fold change /veh CNN1 (11734310_a_at) / RFU VPS37D (11726825_at) / Fold change /veh VPS37D (11726825_at) / RFU C10orf10 (11716522_x_at) / Fold change /veh C10orf10 (11716522_x_at) / RFU KIR2DL2 /// KIR2DL4 /// KIR2DL5A /// KIR2DL5B /// KIR2DS1 /// KIR2DS2 /// KIR2DS3 /// KIR2DS4 /// KIR3DL3 /// KIR3DL3 /// KIR3DS1 (11738374_at) / Fold change /veh KIR2DL2 /// KIR2DL4 /// KIR2DL5A /// KIR2DL5B /// KIR2DS1 /// KIR2DS2 /// KIR2DS3 /// KIR2DS4 /// KIR3DL3 /// KIR3DL3 /// KIR3DS1 (11738374_at) / RFU C1QL1 (11718748_at) / Fold change /veh C1QL1 (11718748_at) / RFU TMPRSS4 (11747572_a_at) / Fold change /veh TMPRSS4 (11747572_a_at) / RFU HAMP (11756126_x_at) / Fold change /veh HAMP (11756126_x_at) / RFU RNFT2 (11725882_a_at) / Fold change /veh RNFT2 (11725882_a_at) / RFU NR4A2 (11747474_a_at) / Fold change /veh NR4A2 (11747474_a_at) / RFU ABCC12 (11746883_a_at) / Fold change /veh ABCC12 (11746883_a_at) / RFU TMEM136 (11760407_x_at) / Fold change /veh TMEM136 (11760407_x_at) / RFU CLDN22 /// WWC2 (11732394_at) / Fold change /veh CLDN22 /// WWC2 (11732394_at) / RFU HLA-DPB1 (11760878_x_at) / Fold change /veh HLA-DPB1 (11760878_x_at) / RFU SPINT1 (11716480_a_at) / Fold change /veh SPINT1 (11716480_a_at) / RFU GAP43 (11754022_s_at) / Fold change /veh GAP43 (11754022_s_at) / RFU A4GNT (11735810_at) / Fold change /veh A4GNT (11735810_at) / RFU PRB3 (11715151_x_at) / Fold change /veh PRB3 (11715151_x_at) / RFU TUBB4B (11761932_at) / Fold change /veh TUBB4B (11761932_at) / RFU CAPN14 (11732068_a_at) / Fold change /veh CAPN14 (11732068_a_at) / RFU TMCC2 (11721928_a_at) / Fold change /veh TMCC2 (11721928_a_at) / RFU IRGQ (11745062_a_at) / Fold change /veh IRGQ (11745062_a_at) / RFU FAM174B (11720279_a_at) / Fold change /veh FAM174B (11720279_a_at) / RFU TMPRSS4 (11748680_a_at) / Fold change /veh TMPRSS4 (11748680_a_at) / RFU FAM212B (11763350_a_at) / Fold change /veh FAM212B (11763350_a_at) / RFU PLEKHG5 (11743358_a_at) / Fold change /veh PLEKHG5 (11743358_a_at) / RFU ZSCAN30 (11745921_a_at) / Fold change /veh ZSCAN30 (11745921_a_at) / RFU CMKLR1 (11741424_a_at) / Fold change /veh CMKLR1 (11741424_a_at) / RFU LOC101060620 /// MAPK8IP1 (11723275_at) / Fold change /veh LOC101060620 /// MAPK8IP1 (11723275_at) / RFU SPTSSB (11747773_x_at) / Fold change /veh SPTSSB (11747773_x_at) / RFU PRSS12 (11739890_at) / Fold change /veh PRSS12 (11739890_at) / RFU BIN1 (11741810_x_at) / Fold change /veh BIN1 (11741810_x_at) / RFU WNT11 (11732464_a_at) / Fold change /veh WNT11 (11732464_a_at) / RFU C10orf10 (11716521_a_at) / Fold change /veh C10orf10 (11716521_a_at) / RFU C5orf56 (11738089_at) / Fold change /veh C5orf56 (11738089_at) / RFU CYB561 (11721691_x_at) / Fold change /veh CYB561 (11721691_x_at) / RFU ANKRD19P (11752326_a_at) / Fold change /veh ANKRD19P (11752326_a_at) / RFU OR2T12 /// OR2T33 /// OR2T8 (11738714_s_at) / Fold change /veh OR2T12 /// OR2T33 /// OR2T8 (11738714_s_at) / RFU VCAN (11748164_a_at) / Fold change /veh VCAN (11748164_a_at) / RFU JSRP1 (11732532_at) / Fold change /veh JSRP1 (11732532_at) / RFU KRTAP10-11 (11738290_x_at) / Fold change /veh KRTAP10-11 (11738290_x_at) / RFU MYO3A (11730013_a_at) / Fold change /veh MYO3A (11730013_a_at) / RFU EBF3 (11725865_a_at) / Fold change /veh EBF3 (11725865_a_at) / RFU CAMK2N1 (11719241_x_at) / Fold change /veh CAMK2N1 (11719241_x_at) / RFU C5orf56 (11738088_a_at) / Fold change /veh C5orf56 (11738088_a_at) / RFU OLFML3 (11715873_a_at) / Fold change /veh OLFML3 (11715873_a_at) / RFU LOC100653217 /// NTM (11731650_a_at) / Fold change /veh LOC100653217 /// NTM (11731650_a_at) / RFU MAPK11 (11762145_a_at) / Fold change /veh MAPK11 (11762145_a_at) / RFU FIZ1 (11724087_x_at) / Fold change /veh FIZ1 (11724087_x_at) / RFU OASL (11726364_x_at) / Fold change /veh OASL (11726364_x_at) / RFU SOX15 (11748057_x_at) / Fold change /veh SOX15 (11748057_x_at) / RFU CD79A (11719716_a_at) / Fold change /veh CD79A (11719716_a_at) / RFU HIST1H1D (11736915_at) / Fold change /veh HIST1H1D (11736915_at) / RFU CASKIN2 (11723855_a_at) / Fold change /veh CASKIN2 (11723855_a_at) / RFU LOC730098 (11760151_x_at) / Fold change /veh LOC730098 (11760151_x_at) / RFU OR4N2 (11742367_at) / Fold change /veh OR4N2 (11742367_at) / RFU PRRT2 (11749266_a_at) / Fold change /veh PRRT2 (11749266_a_at) / RFU SNX32 (11753110_a_at) / Fold change /veh SNX32 (11753110_a_at) / RFU CDHR5 (11726645_a_at) / Fold change /veh CDHR5 (11726645_a_at) / RFU RCAN1 (11760418_a_at) / Fold change /veh RCAN1 (11760418_a_at) / RFU FAM167A (11723789_a_at) / Fold change /veh FAM167A (11723789_a_at) / RFU FAM26E (11764081_at) / Fold change /veh FAM26E (11764081_at) / RFU ISYNA1 (11749810_s_at) / Fold change /veh ISYNA1 (11749810_s_at) / RFU ACY1 (11761880_at) / Fold change /veh ACY1 (11761880_at) / RFU 11764098_at / Fold change /veh 11764098_at / RFU SAMD14 (11745864_x_at) / Fold change /veh SAMD14 (11745864_x_at) / RFU NPB (11741838_a_at) / Fold change /veh NPB (11741838_a_at) / RFU TMPRSS6 (11731388_a_at) / Fold change /veh TMPRSS6 (11731388_a_at) / RFU KRTAP10-2 (11738614_at) / Fold change /veh KRTAP10-2 (11738614_at) / RFU ARHGAP8 /// PRR5-ARHGAP8 (11727945_x_at) / Fold change /veh ARHGAP8 /// PRR5-ARHGAP8 (11727945_x_at) / RFU KRTAP5-7 /// NADSYN1 (11734609_at) / Fold change /veh KRTAP5-7 /// NADSYN1 (11734609_at) / RFU RASL12 (11751679_a_at) / Fold change /veh RASL12 (11751679_a_at) / RFU CDKN2B (11736163_a_at) / Fold change /veh CDKN2B (11736163_a_at) / RFU PRF1 (11729649_at) / Fold change /veh PRF1 (11729649_at) / RFU, ZNF638 /// ZNF638-IT1 / Fold change vs veh, ZNF638 /// ZNF638-IT1 / RFU, PANK3 / Fold change vs veh, PANK3 / RFU, SH3YL1 / Fold change vs veh, SH3YL1 / RFU, ZEB2 / Fold change vs veh, ZEB2 / RFU, NRIP1 / Fold change vs veh, NRIP1 / RFU, PTTG1IP / Fold change vs veh, PTTG1IP / RFU, CAPN2 / Fold change vs veh, CAPN2 / RFU, MED14 / Fold change vs veh, MED14 / RFU, SNORA58 / Fold change vs veh, SNORA58 / RFU, C1orf63 / Fold change vs veh, C1orf63 / RFU, LRRFIP1 / Fold change vs veh, LRRFIP1 / RFU, NDUFAF7 / Fold change vs veh, NDUFAF7 / RFU, SLC12A2 / Fold change vs veh, SLC12A2 / RFU, IBTK / Fold change vs veh, IBTK / RFU, ESF1 / Fold change vs veh, ESF1 / Fold change vs veh, TMEM50B / RFU, TAOK1 / Fold change vs veh, TAOK1 / RFU, ACBD3 / Fold change vs veh, ACBD3 / RFU, TMA16 / Fold change vs veh, TMA16 / RFU, RWDD3 / Fold change vs veh, RWDD3 / RFU, BCAT1 / Fold change vs veh, BCAT1 / RFU, EDEM3 / Fold change vs veh, EDEM3 / RFU, TMEM33 / Fold change vs veh, TMEM33 / RFU, WDR75 / Fold change vs veh, WDR75 / RFU, AHCTF1 / Fold change vs veh, AHCTF1 / RFU, TFRC / Fold change vs veh, TFRC / RFU, ZDHHC17 / Fold change vs veh, ZDHHC17 / RFU, NOM1 / Fold change vs veh, NOM1 / RFU, ARL8B / Fold change vs veh, ARL8B / RFU, ZBTB11 / Fold change vs veh, ZBTB11 / RFU, TAMM41 / Fold change vs veh, TAMM41 / RFU, KIAA1704 /// LOC100996395 / Fold change vs veh, KIAA1704 /// LOC100996395 / RFU, ING1 / Fold change vs veh, ING1 / RFU, TRMT61B / Fold change vs veh, TRMT61B / RFU, FUBP3 / Fold change vs veh, FUBP3 / RFU, TP53 / Fold change vs veh, TP53 / RFU, TNKS2 / Fold change vs veh, TNKS2 / RFU, ZFP14 / Fold change vs veh, ZFP14 / RFU, ACTR2 / Fold change vs veh, ACTR2 / RFU, PPP3R1 / Fold change vs veh, PPP3R1 / RFU, PIK3R1 / Fold change vs veh, PIK3R1 / RFU, HNRNPA1 / Fold change vs veh, HNRNPA1 / RFU, RNF170 / Fold change vs veh, RNF170 / RFU, ZNF28 / Fold change vs veh, ZNF28 / RFU, RNGTT / Fold change vs veh, RNGTT / RFU, OGT / Fold change vs veh, OGT / RFU, BRD1 / Fold change vs veh, BRD1 / RFU, MARS / Fold change vs veh, MARS / RFU, ZNF655 / Fold change vs veh, ZNF655 / RFU, FAHD1 / Fold change vs veh, FAHD1 / RFU, BDP1 / Fold change vs veh, BDP1 / RFU, LRRCC1 / Fold change vs veh, LRRCC1 / RFU, ARID1A / Fold change vs veh, ARID1A / RFU, ZNF146 / Fold change vs veh, ZNF146 / RFU, ZNF330 / Fold change vs veh, ZNF330 / RFU, GPN3 / Fold change vs veh, GPN3 / RFU, C9orf123 / Fold change vs veh, C9orf123 / RFU, N4BP2L2 / Fold change vs veh, N4BP2L2 / RFU, ARFIP1 / Fold change vs veh, ARFIP1 / RFU, FAM179B / Fold change vs veh, FAM179B / RFU, BCL10 / Fold change vs veh, BCL10 / RFU, UHRF1BP1L / Fold change vs veh, UHRF1BP1L / RFU, BET1 / Fold change vs veh, BET1 / RFU, CNOT2 / Fold change vs veh, CNOT2 / RFU, ZNF268 / Fold change vs veh, ZNF268 / Fold change vs veh, ZNF507 / RFU, DGCR2 / Fold change vs veh, DGCR2 / RFU, WDSUB1 / Fold change vs veh, WDSUB1 / Fold change vs veh, HSP90B1 /// MIR3652 / RFU, ADSS / Fold change vs veh, ADSS / RFU, GK / Fold change vs veh, GK / RFU, ZNF148 / Fold change vs veh, ZNF148 / RFU, TAF9 / Fold change vs veh, TAF9 / RFU, SLC1A5 / Fold change vs veh, SLC1A5 / RFU, SLMO2 / Fold change vs veh, SLMO2 / RFU, ABCC4 / Fold change vs veh, ABCC4 / RFU, LOC101060439 /// RAP1B / Fold change vs veh, LOC101060439 /// RAP1B / RFU, RFX7 / Fold change vs veh, RFX7 / RFU, GTPBP10 / Fold change vs veh, GTPBP10 / RFU, CNEP1R1 / Fold change vs veh, CNEP1R1 / RFU, BIVM-ERCC5 /// ERCC5 / Fold change vs veh, BIVM-ERCC5 /// ERCC5 / RFU, ILF3 / Fold change vs veh, ILF3 / RFU 11762660_at / Fold change /veh 11762660_at / RFU VCAN (11757783_s_at) / Fold change /veh VCAN (11757783_s_at) / RFU DDX43 (11728927_at) / Fold change /veh DDX43 (11728927_at) / RFU KRT8 (11758188_x_at) / Fold change /veh KRT8 (11758188_x_at) / RFU NKD1 (11759106_at) / Fold change /veh NKD1 (11759106_at) / RFU SRD5A1 (11742802_a_at) / Fold change /veh SRD5A1 (11742802_a_at) / RFU TPSAB1 /// TPSB2 (11721975_s_at) / Fold change /veh TPSAB1 /// TPSB2 (11721975_s_at) / RFU GSTM3 (11746129_a_at) / Fold change /veh GSTM3 (11746129_a_at) / RFU IL23R (11737362_x_at) / Fold change /veh IL23R (11737362_x_at) / RFU TMEM51 (11727254_a_at) / Fold change /veh TMEM51 (11727254_a_at) / RFU PIWIL2 (11732686_x_at) / Fold change /veh PIWIL2 (11732686_x_at) / RFU ORM1 (11744905_x_at) / Fold change /veh ORM1 (11744905_x_at) / RFU CCDC152 (11743942_at) / Fold change /veh CCDC152 (11743942_at) / RFU ECM1 (11717891_a_at) / Fold change /veh ECM1 (11717891_a_at) / RFU IL23R (11748794_a_at) / Fold change /veh IL23R (11748794_a_at) / RFU TNFAIP8L3 (11732012_x_at) / Fold change /veh TNFAIP8L3 (11732012_x_at) / RFU MBOAT4 (11741988_at) / Fold change /veh MBOAT4 (11741988_at) / RFU 11764193_at / Fold change /veh 11764193_at / RFU TMEM53 (11763286_at) / Fold change /veh TMEM53 (11763286_at) / RFU MAGEB2 (11727129_at) / Fold change /veh MAGEB2 (11727129_at) / RFU TMEM200A (11744735_a_at) / Fold change /veh TMEM200A (11744735_a_at) / RFU CCDC152 (11751479_a_at) / Fold change /veh CCDC152 (11751479_a_at) / RFU FAM211A (11726209_a_at) / Fold change /veh FAM211A (11726209_a_at) / RFU RGS16 (11746705_a_at) / Fold change /veh RGS16 (11746705_a_at) / RFU VCAN (11755009_s_at) / Fold change /veh VCAN (11755009_s_at) / RFU RHOB (11743442_s_at) / Fold change /veh RHOB (11743442_s_at) / RFU RGS16 (11720943_a_at) / Fold change /veh RGS16 (11720943_a_at) / RFU RGS16 (11720944_at) / Fold change /veh RGS16 (11720944_at) / RFU, VPS4B / Fold change vs veh, VPS4B / RFU, CREB1 / Fold change vs veh, CREB1 / RFU, DNAJC13 / Fold change vs veh, DNAJC13 / RFU, GNAQ / Fold change vs veh, GNAQ / RFU, CDK5R1 / Fold change vs veh, CDK5R1 / RFU, ZRANB3 / Fold change vs veh, ZRANB3 / RFU, CUL4A / Fold change vs veh, CUL4A / RFU, CCNY / Fold change vs veh, CCNY / RFU, UFL1 / Fold change vs veh, UFL1 / RFU, COG3 / Fold change vs veh, COG3 / RFU, DIAPH2 / Fold change vs veh, DIAPH2 / RFU, SKA2 / Fold change vs veh, SKA2 / RFU, AFF3 / Fold change vs veh, AFF3 / RFU, LMF1 / Fold change vs veh, LMF1 / RFU, IPO11 / Fold change vs veh, IPO11 / RFU, DFFB / Fold change vs veh, DFFB / RFU, FOXP1 / Fold change vs veh, FOXP1 / RFU, CARD8 / Fold change vs veh, CARD8 / RFU, STRN3 / Fold change vs veh, STRN3 / RFU, ADK / Fold change vs veh, ADK / RFU, RASSF2 / Fold change vs veh, RASSF2 / RFU, WIPF1 / Fold change vs veh, WIPF1 / RFU, LARP1B / Fold change vs veh, LARP1B / RFU, RASA1 / Fold change vs veh, RASA1 / RFU, RB1 / Fold change vs veh, RB1 / RFU, PPFIA1 / Fold change vs veh, PPFIA1 / RFU, MAT2A / Fold change vs veh, MAT2A / RFU, CCT5 / Fold change vs veh, CCT5 / RFU, WDR92 / Fold change vs veh, WDR92 / RFU, CUX1 / Fold change vs veh, CUX1 / RFU, TTC7A / Fold change vs veh, TTC7A / RFU, TMEM135 / Fold change vs veh, TMEM135 / RFU, DEPTOR / Fold change vs veh, DEPTOR / RFU, CPM / Fold change vs veh, CPM / RFU, DNAJB6 / Fold change vs veh, DNAJB6 / RFU, CACNA2D3 / Fold change vs veh, CACNA2D3 / RFU, DTX4 / Fold change vs veh, DTX4 / RFU, TFCP2 / Fold change vs veh, TFCP2 / RFU, GMCL1 /// GMCL1P1 / Fold change vs veh, GMCL1 /// GMCL1P1 / RFU, AEBP2 / Fold change vs veh, AEBP2 / RFU, SNHG1 /// SNORD22 /// SNORD25 /// SNORD26 /// SNORD27 /// SNORD28 /// SNORD29 /// SNORD31 / Fold change vs veh, SNHG1 /// SNORD22 /// SNORD25 /// SNORD26 /// SNORD27 /// SNORD28 /// SNORD29 /// SNORD31 / Fold change (Aza/veh), C12orf56 (ProbeSet 11735607_a_at) / Fold change (ACY-1035/veh), C12orf56 (ProbeSet 11735607_a_at) / Fold change (Aza/veh), FGFR1OP (ProbeSet 11751329_s_at) / Fold change (ACY-1035/veh), FGFR1OP (ProbeSet 11751329_s_at) / Fold change (Aza/veh), VPS36 (ProbeSet 11739960_a_at) / Fold change (ACY-1035/veh), VPS36 (ProbeSet 11739960_a_at) / RFU SYPL1 (11715823_x_at) / Fold change /veh SYPL1 (11715823_x_at) / RFU IGFBP7 (11715501_s_at) / Fold change /veh IGFBP7 (11715501_s_at) / RFU REEP3 (11722064_at) / Fold change /veh REEP3 (11722064_at) / RFU IGLL1 (11728026_x_at) / Fold change /veh IGLL1 (11728026_x_at): dose or concentration left out as unconfirmed
Details: MV-4-11 cells, 48 hours

Nc1ncn([C@@H]2O[C@H](CO)[C@@H](O)[C@H]2O)c(=O)n1 [azacitidine]
RFU OLFML3 (11715873_a_at): 10.99 RFU
